Data taken from US20050020576A1, “Kappa agonist compounds and pharmaceutical formulations thereof” (priority 1996, published 2005).
Values joined by “and” are separate entries in the source; they are usually repeats but may differ in a detail not shown here. Equal entries are not always repeated. Structures can show the parent of a compound that is named as a salt.

How the values were obtained:
[1] = system: formalin-induced flinching; assay: animal or person; assay type: in vivo, male Sprague-Dawley rats; conditions: rat, in vivo
[2] = target: T1, cloned human kappa receptor (Homo sapiens, UniProt P41145); assay: [3H]U69593 (agonist) binding to the cloned human kappa receptor
[3] = target: T1, cloned human kappa receptor; assay: biochemical; assay type: binding; set-up: (3H)-Diprenorphin, % / k [3H] Diprenorphin, %: dose or concentration left out as unconfirmed; conditions: for inhibition at 1 µM: read-out: 3H-Diprenorphin, % @ 1 uM

T1 sequence (P41145 whole entry): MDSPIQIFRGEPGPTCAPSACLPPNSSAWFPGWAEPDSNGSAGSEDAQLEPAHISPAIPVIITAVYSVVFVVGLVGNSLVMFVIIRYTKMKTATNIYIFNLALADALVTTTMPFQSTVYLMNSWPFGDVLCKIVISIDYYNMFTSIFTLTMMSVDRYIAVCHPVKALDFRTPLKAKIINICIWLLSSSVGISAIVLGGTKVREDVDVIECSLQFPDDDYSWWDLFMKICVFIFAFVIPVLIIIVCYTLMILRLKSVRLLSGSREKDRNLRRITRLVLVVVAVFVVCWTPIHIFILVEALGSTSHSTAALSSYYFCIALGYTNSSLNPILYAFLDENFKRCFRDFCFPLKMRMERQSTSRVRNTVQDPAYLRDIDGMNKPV

## CC(=O)N1CCN(C(=O)Cc2ccc(S(C)(=O)=O)cc2)C(CN2CCCC2)C1 (racemic) [(R,S-10a), hydrochloride]
[1]
  Late Phase Formalin, % @ 300; i.paw: 6% @ 300
[2]; Ki, nM 3H-U-69,593
  Ki: 2.3 nM
[3]
  inhibition at 1 µM: 27%

## Cc1ccc(S(=O)(=O)N2CCN(C(=O)Cc3ccc(Cl)c(Cl)c3)[C@H](CN3CCCC3)C2)cc1 [(R-3l), (R)-4-(4-Methyphenylsulfonyl)-1-[(3,4-dichlorophenyl)acetyl]-2-[(1-Pyrrolidinyl)methyl]-piperazine hydrochloride]
[1]
  Late Phase Formalin, % @ 300; i.paw: 24% @ 300
[2]; Ki, nM 3H-U-69,593
  Ki: 6.2 nM
[3]; Table I, read-out: Ki, nM 3H-Diprenorphin
  Ki: 120 nM

## O=C(Cc1ccc(Cl)c(Cl)c1)N1CCN(C(=O)C(F)(F)F)C[C@H]1CN1CCCC1 [(R-3h), (R)-4-Trifluoroacetyl-1-(3,4-dichlorophenyl)acetyl]-2-[(1-pyrrolidinyl)methyl]-piperazine hydrochloride]
[1]
  Late Phase Formalin, % @ 300; i.paw: 94% @ 300
[2]; Ki, nM 3H-U-69,593
  Ki: 0.26 nM and 0.16 nM
[3]; Ki, nM 3H-Diprenorphin
  Ki: 6.9 nM and 1.8 nM

## COC(=O)N1CCN(C(=O)Cc2ccccc2[N+](=O)[O-])C(CN2CCCC2)C1 (racemic) [(R,S-9d), (R,S)-Methyl 4-[(2-nitrophenyl)acetyl]-3-[(1-Pyrrolidinyl)-methyl]-1-piperazine-carboxylate hydrochloride]
[1]
  Late Phase Formalin, % @ 300; i.paw: 93% @ 300
[2]; Ki, nM 3H-U-69,593
  Ki: 0.74 nM and 0.73 nM
[3]; Ki, nM 3H-Diprenorphin
  Ki: 37 nM

## CCOC(=O)CN(CC(=O)OCC)c1ccc2c(c1)[C@H](N(C)C(=O)Cc1ccc(Cl)c(Cl)c1)[C@@H](N1CCCC1)CC2 (racemic) [II-10]
[1]
  Late Phase Formalin, % A @ 300: 37% A @ 300
[2]; Ki (nM) k (mg) [3H]U69,593
  Ki: 0.68 nM
[3]; Ki (nM) k [3H] Diprenorphin
  Ki: 4.6 nM

## Cl.O=C(Cc1ccc(Cl)c(Cl)c1)N1CCNC[C@@H]1CN1CCCC1 [(R-2), (R)-1-[(3,4-Dichlorophenyl)acetyl]-2-[(1-pyrrolidinyl)methyl]piperazine hydrochloride]
[1]
  Late Phase Formalin, % @ 300; i.paw: 57% @ 300
[2]; Ki, nM 3H-U-69,593
  Ki: 1.5 nM and 1.3 nM
[3]; Ki, nM 3H-Diprenorphin
  Ki: 14 nM and 17 nM

## COC(=O)N1CCN(C(=O)Cc2ccc(Cl)c(Cl)c2)C(CN2CCCC2)C1 (stereo not shown) [GR 89696, reference compound]
[1]
  Late Phase Formalin A50 (mg); i.paw: 0.35(0.20-0.62) mg
[2]; Ki, nM 3H-U-69,593
  Ki: 1.6 nM and 1.5 nM
[3]; Ki, nM 3H-Diprenorphin
  Ki: 0.095 nM and 0.1 nM

## CS(=O)(=O)N1CCN(C(=O)Cc2ccc(C(F)(F)F)cc2)C(CN2CCCC2)C1 (racemic) [(R,S-8d), (R,S)-4-Methanesulfonyl-1-[(4-trifluoromethylphenyl)acetyl]-2-[(1-pyrrolidinyl)-methyl]piperazine hydrochloride]
[1]
  Late Phase Formalin, % @ 300; i.paw: 97% @ 300
[2]; Ki, nM 3H-U-69,593
  Ki: 1.3 nM and 1.9 nM
[3]; Ki, nM 3H-Diprenorphin
  Ki: 16 nM and 17 nM

## COC(=O)N1CCN(C(=O)Cc2ccc(C(F)(F)F)cc2)C(CN2CCCC2)C1 (racemic) [(R,S-9b), (R,S)-Methyl 4-[(4-trifluoromethylphenyl)acetyl]-3-[(1-pyrrolidinyl)-methyl]-1-piperazinecarboxylate hydrochloride]
[1]
  Late Phase Formalin, % @ 300; i.paw: 98% @ 300
[2]; Ki, nM 3H-U-69,593
  Ki: 0.076 nM and 0.13 nM
[3]; Ki, nM 3H-Diprenorphin
  Ki: 0.49 nM

## Cl.Cl.O=C(O)CN1CCN(C(=O)Cc2ccc(Cl)c(Cl)c2)[C@H](CN2CCCC2)C1 [(R-3c), (R)-4-[(3,4-dichlorophenyl)acetyl]-3-[(1-pyrrolidinyl)methyl]-1-piperazineacetic acid dihydrochloride]
[1]
  Late Phase Formalin, % @ 300; i.paw: 26% @ 300
other
  melting point: 190 °C (dec.)
[2]; Ki, nM 3H-U-69,593
  Ki: 23 nM and 21 nM
[3]
  inhibition at 1 µM: 62%

## CCOP(=O)(OCC)N1CCN(C(=O)Cc2ccc(Cl)c(Cl)c2)[C@H](CN2CCCC2)C1 [(R-3g), (R)-4-(Diethoxyphosphonate)-1-[(3,4-dichlorophenyl)acetyl]-2-[(1-pyrolidinyl)methyl]-piperazine hydrochloride]
[1]
  Late Phase Formalin, % @ 300; i.paw: 54% @ 300
[2]; Ki, nM 3H-U-69,593
  Ki: 1.3 nM and 1.4 nM
[3]; Ki, nM 3H-Diprenorphin
  Ki: 99 nM and 33 nM

## CC(C)(C)CC(=O)N1CCN(C(=O)Cc2ccc(Cl)c(Cl)c2)[C@H](CN2CCCC2)C1 [(R-3b), (R)-4-t-Butyl-acetyl-1-[(3,4-dichlorophenyl)acetyl]-2-[(1-pyrrolidinyl)methyl]-piperazine]
[1]
  Late Phase Formalin column, % I @ 1 μM: 75% I @ 1 μM
[2]
  3H-U-69,593, % @ 1 uM: 75% @ 1 uM
[3]
  3H-Diprenorphin, % @ 1 uM: 30% @ 1 uM

## COC(=O)N1CCN(C(=O)Cc2ccccc2N)C(CN2CCCC2)C1 (racemic) [(R,S-9f), (R,S)-Methyl 4-[(2-aminophenyl)acetyl]-3-[(1-pyrrolidinyl)-methyl]-1-piperazine-carboxylate dihydrochloride]
[1]
  Late Phase Formalin, % @ 300; i.paw: 97% @ 300
[2]; Ki, nM 3H-U-69,593
  Ki: 0.67 nM and 0.41 nM
[3]; Ki, nM 3H-Diprenorphin
  Ki: 4.6 nM and 3.2 nM

## CC(=O)N1CCN(C(=O)Cc2ccc(Cl)c(Cl)c2)[C@H](CN2CCCC2)C1.Cl [(R-3f), (R)-4-Acetyl-1-[(3,4-dichlorophenyl)acetyl]-2-[(1-pyrrolidinyl)methyl]-piperazine hydrochloride]
[1]
  Late Phase Formalin, % @ 300; i.paw: 95% @ 300
other
  melting point: 153 to 155 °C
[2]; Ki, nM 3H-U-69,593
  Ki: 0.11 nM and 0.14 nM
[3]; Ki, nM 3H-Diprenorphin
  Ki: 4.2 nM and 1.4 nM

## CC(=O)N1CCN(C(=O)Cc2cccc([N+](=O)[O-])c2)C(CN2CCCC2)C1 (racemic) [(R,S-10d), (R,S)-4-Acetyl-1-[(3-nitrophenyl)acetyl]-3-[(1-pyrrolidinyl)-methyl]piperazine-carboxylate hydrochloride]
[2]; Ki, nM 3H-U-69,593
  Ki: 0.72 nM
[3]
  inhibition at 1 µM: 94%

## Cl.O=C(Cc1ccc(Cl)c(Cl)c1)N1CCN(Cc2ccccc2)C[C@H]1CN1CCCC1 [(R-1), (R)-4-(Phenylmethyl)-1-[(3,4-dichlorophenyl)acetyl]-2-[(1-pyrrolidinyl)methyl]piperazine hydrochloride]
[1]
  Late Phase Formalin, % @ 300; i.paw: 53% @ 300
other
  melting point: 168 to 170 °C
[2]; Ki, nM 3H-U-69,593
  Ki: 9.3 nM
[3]; Ki, nM 3H-Diprenorphin
  Ki: 57 nM and 38 nM

## CS(=O)(=O)N1CCN(C(=O)Cc2c[nH]c3ccccc23)C(CN2CCCC2)C1 (racemic) [(R,S-8e), (R,S)-4-Methanesulfonyl-1-[(3-indolylacetyl-2-[(1-pyrrolidinyl)-methyl]piperazine hydrochloride]
[2]; Ki, nM 3H-U-69,593
  Ki: 5.3 nM and 3.2 nM
[3]
  inhibition at 1 µM: 74%

## Cl.NC(=O)N1CCN(C(=O)Cc2ccc(Cl)c(Cl)c2)[C@H](CN2CCCC2)C1 [(R-3i), (R)-4-[(3,4-Dichlorophenyl)acetyl]-3-[(1-pyrrolidinyl)methyl]-1-piperazinecarboxamide hydrochloride]
[1]
  Late Phase Formalin, % @ 300; i.paw: 68% @ 300
[2]; Ki, nM 3H-U-69,593
  Ki: 2.9 nM
[3]; Ki, nM 3H-Diprenorphin
  Ki: 56 nM and 29 nM

## CC(=O)N1CCN(C(=O)Cc2ccccc2C(F)(F)F)C(CN2CCCC2)C1 (racemic) [(R,S-10c), (R,S)-4-Acetyl-1-[(2-trifluoromethylphenyl)acetyl]-3-[(1-pyrrolidinyl)-methyl]piperazinecarboxylate hydrochloride]
[2]; Ki, nM 3H-U-69,593
  Ki: 16 nM
[3]
  inhibition at 1 µM: 45%

## COC(=O)N1CCN(C(=O)Cc2ccccc2OC)C(CN2CCCC2)C1 (racemic) [(R,S-9e), hydrochloride]
[1]
  Late Phase Formalin, % @ 300; i.paw: 98% @ 300
[2]; Ki, nM 3H-U-69,593
  Ki: 0.46 nM and 1.3 nM
[3]; Ki, nM 3H-Diprenorphin
  Ki: 7.3 nM

## COC(=O)N1CCN(C(=O)Cc2c[nH]c3ccccc23)C(CN2CCCC2)C1 (racemic) [(R,S-9c), (R,S)-Methyl 4-[(3-indolyl)acetyl]-3-[(1-pyrrolidinyl)-methyl]-1-piperazine-carboxylate hydrochloride]
[1]
  Late Phase Formalin, % @ 300; i.paw: 95% @ 300
[2]; Ki, nM 3H-U-69,593
  Ki: 0.27 nM and 0.4 nM
[3]; Ki, nM 3H-Diprenorphin
  Ki: 3 nM

## CN(C(=O)C(c1ccccc1)c1ccccc1)[C@H]1c2cc(O)ccc2CC[C@@H]1N1CCCC1 (racemic) [II-4]
[2]; Table II, read-out: Ki (nM) k (mg) [3H]U69,593
  Ki: 432 nM
[3]; Table II, read-out: Ki (nM) k [3H] Diprenorphin
  Ki: 549 nM

## CN(C(=O)C(c1ccccc1)c1ccccc1)[C@H]1c2ccccc2C[C@@H]1N1CCCC1 (racemic) [II-20]
[2]
  Ki: 146 nM
[3]
  k [3H] Diprenorphin, %: 29% @ 1 mM

## CN(C(=O)Cc1ccc(Cl)c(Cl)c1)[C@H]1c2cc(S(=O)(=O)N(C)Cc3ccccc3)ccc2CC[C@@H]1N1CCCC1 (racemic) [II-16]
[2]; Ki (nM) k (mg) [3H]U69,593
  Ki: 40 nM
[3]; Ki (nM) k [3H] Diprenorphin
  Ki: 200 nM

## COC(=O)N1CCN(C(=O)Cc2ccc(S(C)(=O)=O)cc2)C(CN2CCCC2)C1 (racemic) [(R,S-9a), (R,S)-Methyl 4-[(4-methylsulfonylphenyl)acetyl]-3-[(1-pyrrolidinyl)-methyl]-1-piperazinecarboxylate hydrochloride]
[1]
  Late Phase Formalin, % @ 300; i.paw: 46% @ 300
[2]; Ki, nM 3H-U-69,593
  Ki: 0.37 nM and 0.42 nM
[3]; Ki, nM 3H-Diprenorphin
  Ki: 11 nM

## CCOP(=O)(CCNc1ccc2c(c1)[C@H](N(C)C(=O)Cc1ccc(Cl)c(Cl)c1)[C@@H](N1CCCC1)CC2)OCC (racemic) [II-13]
[2]; Ki (nM) k (mg) [3H]U69,593
  Ki: 2.2 nM
[3]; Ki (nM) k [3H] Diprenorphin
  Ki: 6.2 nM

## Cl.Cl.NC(CC(=O)O)C(=O)N1CCN(C(=O)Cc2ccc(Cl)c(Cl)c2)[C@H](CN2CCCC2)C1 (stereo partly drawn) [(R-3e), (R)-4-Aspartic acid-1-[(3,4-dichlorophenyl)acetyl]-2-[(1-pyrrolidinyl)methyl]-piperazine dihydrochloride]
[1]
  Late Phase Formalin, % @ 300; i.paw: 22% A @ 300
[2]; dihydrochloride, read-out: Ki, nM 3H-U-69,593
  Ki: 37 nM and 28 nM
[3]
  3H-Diprenorphin, % @ 1 uM: 39% @ 1 uM

## O=C(Cc1ccc(C(F)(F)F)cc1)N1CCN(Cc2ccccc2)CC1CN1CCCC1 (stereo not shown) [(R.S-11)]
[1]
  Late Phase Formalin, % @ 300; i.paw: 92% @ 300
[2]; Ki, nM 3H-U-69,593
  Ki: 0.39 nM and 0.57 nM
[3]; Ki, nM 3H-Diprenorphin
  Ki: 2.2 nM and 2.4 nM

## CS(=O)(=O)N1CCN(C(=O)Cc2ccc(Cl)c(Cl)c2)C(CN2CCCC2)C1 (racemic) [(R,S-8a), (R,S)-4-Methanesulfonyl-1-[(3,4-dichlorophenyl)acetyl]-2-[(1-pyrrolidinyl)methyl]-piperazine hydrochloride]
[1]
  Late Phase Formalin, % @ 300; i.paw: 96% @ 300
[2]; Ki, nM 3H-U-69,593
  Ki: 0.37 nM and 0.65 nM
[3]; Ki, nM 3H-Diprenorphin
  Ki: 5.4 nM and 4 nM

## CN(C(=O)C(c1ccccc1)c1ccccc1)C1CCCCC1N1CCCC1 (racemic) [Example 5s, (±)-trans-N-Methyl-N-[2-(1-pyrrolidinyl)cyclohexyl]2,2-dphenylacetamide Hydrochloride]
[2]; Ki(nM) U-69593
  Ki: 330 nM
[3]; Ki(nM) diprenorphine
  Ki: 1170 nM
